Data taken from paper PMC7940618, “Specific inhibition of the Survivin–CRM1 interaction by peptide-modified molecular tweezers” (Nature Communications, 2021).
“And” between values parts separate entries of the source, which are not always exact repeats. Identical values can stand only once. Like-named read-outs stand apart in the source and are kept apart here. Peptide text beside a SMILES is read from it.

Assays:
Survivin120 K90/103T = target: T1, Survivin120 K90/103T (Homo sapiens, UniProt O15392, K103T/K90T); assay: ITC titration of tweezers with Survivin120 K90/103T mutant; format: binding
T1 construct: the only published NMR structure originated from a truncated Survivin (aa 1-120) with improved solubility; GST with PreScission site (N); made in house; host or cells: Escherichia coli soluBL21
Source text: If the tweezer-based inhibitors indeed bind to lysines/arginines flanking the NES (K90, K91, K103, R106), their mutation to, e.g., threonine, should abolish the observed effects. For this reason, we generated double and triple Survivin120 mutants lacking these putative tweezer anchor points. Unfortunately, most double mutants and especially the triple mutants were unfolded as evidenced by 1D ^1H NMR (SI6); finally, the correctly folded double threonine mutant Survivin120 K90/103T was chosen for further investigation. […] Next, binding of FAM-labeled tweezers (SI3) to either Survivin120 wildtype or the K90/103T mutant was studied by fluorescence anisotropy (Fig. 7d–f). […] We conclude that lysines 90 and 103 are indeed essential for efficient tweezer binding.
ITC was performed with a MicroCal iTC200 from Malvern Panalytical in PBS, pH 7.4 at 25 °C with molecular tweezers in the cell and Survivin120 in the titration syringe. The protein was dialyzed overnight at 4 °C against the PBS buffer. Ligands were dissolved in the respective dialysis buffer. Then, 300 µM TW were titrated with 300 µM Survivin120 WT or 321 µM Survivin120 K90/103T. Then, 100 µM TW-ELTL, TW-ELTLGEFL, or TW-LFEEGLLT was titrated with 1.2 mM Survivin120 WT or 2.5 mM Survivin120 K90/103T. For reverse titrations, either 33.3 or 34.4 µM Survivin120 in the cell was titrated with 5 mM TW or TW-ELTL in the syringe, respectively. All titrations were performed in PBS, pH 7.4 at 25 °C. Then, 1.5 μL injections were used with 120 s spacing time between injections. The injection rate was set to 0.5 µL/s and the reference power was 5 µcal/s. ITC thermograms were fitted to a one set of sites model with the software Origin (v7.0552) provided with the instrument. Heat of dilution was subtracted as constant from each data point.
ITC thermograms were fitted to a one set of sites model with the software Origin provided with the instrument. Heat of dilution was subtracted as constant from each data point. From three independent experiments (n = 3), one representative example was depicted, and thermodynamic data were derived thereof. For pull-down experiments, only the representative quantification of the depicted western blot is shown. […] Fluorescence anisotropy graphs were generated with GraphPad Prism 5.0. Depicted error bars represent the standard deviation of three independent titrations.

[1] = target: T2, Survivin120/CRM1_1-1062VLV430AAA complex (Homo sapiens, UniProt O15392); assay: Fluorescence anisotropy titration of Atto488-Survivin120/CRM1 complex with tweezers; format: binding; conditions: for Anisotropy: Data 1; for IC50: fluorescence anisotropy, Atto488-Survivin120:CRM1 mutant 1:5, n = 1, read-out: IC50, disruption of Survivin–CRM1 complex
T2 construct: the only published NMR structure originated from a truncated Survivin (aa 1-120) with improved solubility; GST with PreScission site (N); made in house; host or cells: E. coli BL21-CodonPlus-RIL (CRM1 mutant); E. coli soluBL21 (Survivin120)
Protocol: We also used fluorescence anisotropy experiments to investigate the ability of the tweezer molecules to disrupt the Survivin–CRM1 complex. Atto488-labeled Survivin120 was preincubated with the CRM1_1-1062VLV430AAA mutant[40] that binds Survivin irrespective of RanGTP and titrated with tweezers.
Fluorescence anisotropy was measured with a Jasco Spectrofluorometer FP-8300 in PBS buffer, pH 7.4, at 25 °C and data were collected with the software Spectra Manager™.
For the quantitative analysis of the Survivin120/CRM1 complex, Survivin120 was labeled with ATTO488-maleimide from Jenabioscience according to the manufacturer’s instructions and mixed with CRM1_1-1062VLV430AAA in a ratio of 1:5. The protein complex was then titrated with tweezers in several steps until a final concentration of approximately 180 μM tweezers was reached. Data were transformed to logarithmic scale and IC50 was fitted using the equation in GraphPad Prism 8:2 y=Amin+Amax−Amin/1+10^x−logIC50 where Amax is the anisotropy in the absence of tweezer, Amin is the anisotropy at the end titration, and x is the concentration of tweezer. Amax was constrained for each data set, whereas Amin and IC50 were fitted.

[2] = Concentration of Tweezer 8.26446
[3] = Concentration of Tweezer 16.39344
[4] = Concentration of Tweezer 24.39024
[5] = Concentration of Tweezer 32.25806
[6] = Concentration of Tweezer 40.00000
[7] = Concentration of Tweezer 55.11811
[8] = Concentration of Tweezer 83.96947
[9] = Concentration of Tweezer 136.69060
[10] = Concentration of Tweezer 183.67350

T1 sequence (O15392 1-120 K90T/K103T): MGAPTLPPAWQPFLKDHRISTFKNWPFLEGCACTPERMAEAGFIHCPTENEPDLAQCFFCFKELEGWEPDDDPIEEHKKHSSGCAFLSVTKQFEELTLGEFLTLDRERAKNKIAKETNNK
T2 sequence (O15392 1-120, one chain of several): as the sequence (O15392 1-120 K90T/K103T) above, with T90K, T103K counted along it

## O=P(O)(O)Oc1c2c(c(OP(=O)(O)O)c3c1C1CC3c3cc4c(cc31)C1CC4c3ccccc31)C1CC2c2cc3c(cc21)C1CC3c2ccccc21 [TW, reference compound]
Survivin120 K90/103T; ITC, Survivin120 K90/103T
  ΔH: -0.6 kcal
Survivin120 K90/103T; ITC, Survivin120 K90/103T, PBS pH 7.4, 25 °C, one set of sites model, read-out: KD
  Kd: 49 ± 5 µM
[1]; [2]
  Anisotropy: 0.0578
[1]; [3]
  Anisotropy: 0.0573
[1]; [4]
  Anisotropy: 0.0568
[1]; [5]
  Anisotropy: 0.0561
[1]; [6]
  Anisotropy: 0.0556
[1]; [7]
  Anisotropy: 0.0551
[1]; [8]
  Anisotropy: 0.0525
[1]; [9]
  Anisotropy: 0.0507
[1]; [10]
  Anisotropy: 0.0512
[1]; Concentration of Tweezer 225.80650
  Anisotropy: 0.0517
[1]
  IC50: 53 µM and 53.4 µM

## CC(C)C[C@H](NC(=O)[C@H](Cc1ccccc1)NC(=O)[C@H](CCC(=O)O)NC(=O)CNC(=O)[C@H](CC(C)C)NC(=O)[C@@H](NC(=O)[C@H](CC(C)C)NC(=O)[C@H](CCC(=O)O)NC(=O)Cn1cc(CCOP(=O)(O)Oc2c3c(c(OP(=O)(O)O)c4c2C2CC4c4cc5c(cc42)C2CC5c4ccccc42)C2CC3c3cc4c(cc32)C2CC4c3ccccc32)nn1)[C@@H](C)O)C(=O)O [TW-ELTLGEFL] (HELM PEPTIDE1{[O=C(Cn1cc(CCOP(=O)(O)Oc2c3c(c(OP(=O)(O)O)c4c2C2CC4c4cc5c(cc42)C2CC5c4ccccc42)C2CC3c3cc4c(cc32)C2CC4c3ccccc32)nn1)[*:2]].E.L.T.L.G.E.F.L}$$$$V2.0)
Survivin120 K90/103T
  Kd: 36 ± 10 µM
[1]
  IC50: 12 µM and 11.6 µM

## CC(C)C[C@H](NC(=O)[C@@H](NC(=O)[C@H](CC(C)C)NC(=O)[C@H](CCC(=O)O)NC(=O)Cn1cc(CCOP(=O)(O)Oc2c3c(c(OP(=O)(O)O)c4c2[C@H]2C[C@@H]4c4cc5c(cc42)[C@H]2C[C@@H]5c4ccccc42)[C@H]2C[C@@H]3c3cc4c(cc32)[C@H]2C[C@@H]4c3ccccc32)nn1)[C@@H](C)O)C(=O)O [TW-ELTL]
Survivin120 K90/103T
  Kd: 50 ± 10 µM
Survivin120 K90/103T; ITC, Survivin120 K90/103T
  ΔH: -1.3 kcal
[1]; [2]
  Anisotropy: 0.0572
[1]; [3]
  Anisotropy: 0.0560
[1]; [4]
  Anisotropy: 0.0559
[1]; [5]
  Anisotropy: 0.0551
[1]; [6]
  Anisotropy: 0.0548
[1]; [7]
  Anisotropy: 0.0528
[1]; [8]
  Anisotropy: 0.0510
[1]; [9]
  Anisotropy: 0.0501
[1]; [10]
  Anisotropy: 0.0506
[1]
  IC50: 39 µM
